This note sets out measurements from patent US7547729B2, “1,3-diphenylprop-2-en-1-one derivative compounds, preparation method thereof and uses of same” (Genfit, priority 2004, dated 2009).

The structures appear in SMILES notation.

One test concerns LDL. The test is described as follows: Protection against LDL oxidation by copper (conjugated diene formation). The class given is biochemical. To be noted: 10^−4M; for diene oxidation rate: FIG. 7b, absence of compounds 2.5. The protocol:
Unless otherwise indicated, the reagents were from Sigma (St Quentin, France). LDL were prepared according to the method described by Lebeau et al. (Lebeau, Furman et al. 2000).
The solutions of test compounds were prepared at 10^−2 M concentration in bicarbonate buffer (pH 9) and diluted in PBS to obtain final concentrations ranging from 0.1 to 100 μM
Prior to oxidation, EDTA was removed from the LDL preparation by dialysis. Oxidation then took place at 30° C. by adding 100 μl of 16.6 μM CuSO4 solution to 160 μL of LDL (125 μg protein/ml) and 20 μl of a test compound solution. The formation of dienes, the species under observation, was followed by measuring optical density at 232 nm in the samples treated with the compounds in the presence or absence of copper. Optical density at 232 nm was measured every 10 minutes for 8 hours in a thermostated spectrophotometer (Tecan Ultra 380). The analyses were performed in triplicate. The compounds were considered to have antioxidant activity when they induced a longer lag phase and reduced the rate of oxidation and the amount of dienes formed in comparison with the control sample.

A further test has as its target T1, PPARα (Homo sapiens, UniProt Q07869).
T1 construct: expressed in transfected cells; host or cells: COS-7 cells
T1 sequence (Q07869 239-466 limits assumed): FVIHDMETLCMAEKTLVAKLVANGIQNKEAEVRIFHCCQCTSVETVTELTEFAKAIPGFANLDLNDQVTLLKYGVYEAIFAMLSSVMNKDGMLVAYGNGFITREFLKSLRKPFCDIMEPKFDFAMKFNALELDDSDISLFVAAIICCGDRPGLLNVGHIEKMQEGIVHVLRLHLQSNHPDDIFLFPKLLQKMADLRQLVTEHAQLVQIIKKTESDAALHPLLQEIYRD
Kind of test: PPARα/Gal4 transactivation system in COS-7 cells. The class given is cell-based. To be noted: 24 hours. The protocol:
(§1) COS-7 cells were incubated with different concentrations of the inventive compounds for 24 hours. The results are expressed as the induction factor (ratio of luminescent signal obtained with the compound and that observed without the compound) after the different treatments.
(§2) PPAR activation was tested in vitro in RK13 epitheloid or COS-7 cell lines by measuring the transcriptional activity of chimeras composed of the DNA binding domain of the yeast gal4 transcription factor and the ligand binding domain of the different PPARs. These latter results were then confirmed in cell lines according to the following protocols:
(§3) RK13 cells were from ECACC (Porton Down, UK), COS-7 cells were from the ATCC (American Type Culture Collection) and were grown in DMEM medium supplemented with 10% (VN) fetal calf serum, 100 U/ml penicillin (Gibco, Paisley, UK) and 2 mM L-glutamine (Gibco, Paisley, UK). The culture medium was changed every two days. Cells were kept at 37° C. in a humidified 95% air/5% CO2 atmosphere.
(§4) The plasmids pG5TkpGL3, pRL-CMV, pGal4-hPPARα, pGal4-hPPARγ, pGal4-hPPARδ and pGal4-φ have been described by Raspe, Madsen et al. (1999). The pGal4-mPPARα, pGal4-hPPARγ and pGal4-hPPARδ constructs were obtained by cloning into the pGal4-φ vector of PCR-amplified DNA fragments corresponding to the DEF domains of the human PPARα, PPARγ and PPARδ nuclear receptors.
(§5) RK13 cells were seeded in 24-well culture dishes at 5×10^4 cells/well, COS-7 cells in 96-well culture dishes at 5×10^4 cells/well and transfected for 2 hours with the reporter plasmid pG5TkpGL3 (50 ng/well), the expression vectors pGal4-φ, pGal4-mPPARα, pGal4-hPPARα, pGal4-hPPARγ, pGal4-hPPARδ (100 ng/well) and the transfection efficiency control vector pRL-CMV (1 ng/well) according to the previously described protocol (Raspe, Madsen et al. 1999), then incubated for 36 hours with the test compounds. At the end of the experiment, the cells were lysed (Gibco, Paisley, UK) and luciferase activity was determined with a Dual-Luciferase™ Reporter Assay System kit (Promega, Madison, Wis., USA) for RK13 cells and Steady Glow Luciferase (Promega) for COS-7 cells according to the supplier's instructions as previously described. The protein content of the cell extracts was then measured with the Bio-Rad Protein Assay (Bio-Rad, Munich, Germany) as directed by the supplier.

For the next test, the target named is T2, PPARγ (Homo sapiens, UniProt P37231).
T2 construct: expressed in transfected cells; host or cells: COS-7 cells
T2 sequence (P37231 238-503 limits assumed): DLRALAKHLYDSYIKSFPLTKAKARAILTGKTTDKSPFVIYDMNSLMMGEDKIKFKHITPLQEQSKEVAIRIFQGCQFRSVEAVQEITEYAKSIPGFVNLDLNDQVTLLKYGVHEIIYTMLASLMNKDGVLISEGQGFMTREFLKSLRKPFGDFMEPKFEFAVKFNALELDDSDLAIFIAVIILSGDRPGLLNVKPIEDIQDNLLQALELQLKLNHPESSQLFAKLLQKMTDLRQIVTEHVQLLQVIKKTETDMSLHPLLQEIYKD
Kind of test: PPARγ/Gal4 transactivation system in COS-7 cells. Type of test: cell-based. Conditions: 24 hours. The protocol:
as §1, §2, §3, §4, §5

The subject of test [1] is Apo E2/E2 transgenic mice. Kind of test: Effects on triglyceride and cholesterol metabolism in Apo E2/E2 transgenic mice. Conditions: gavage, 50 mg/kg/day, seven days. The class given is in vivo. The protocol: FIGS. 19a, 19b, 19c, 19d, 20a, 20b, 20c and 20d illustrate the effects of treatment with compound 2 (Cpd2), compound 13 (Cpd13), compound 33 (Cpd33) and compound 39 (Cpd39) on triglyceride and cholesterol metabolism in Apo E2/E2 transgenic mice treated by gavage with the compound at a dose of 50 mg/kg/day, for seven days.
Apo E2/E2 transgenic mice were housed in a 12-hour light/dark cycle at a constant temperature of 20±3° C. After a 1-week acclimatization period, the mice were weighed and divided into groups of 6 animals selected such that the distribution of body weight was uniform. The test compounds were suspended in carboxymethylcellulose and administered by gastric lavage at the indicated doses, once a day for 7 days. Animals had access to food and water ad libitum. At the end of the experiments, animals were weighed and sacrificed under anesthesia. Blood was collected on EDTA. Plasma was isolated by centrifugation at 3000 rpm for 20 minutes. Liver samples were removed and stored frozen in liquid nitrogen for later analysis.
Lipid concentrations in plasma (total cholesterol and free cholesterol, triglycerides and phospholipids) were determined by a colorimetric assay (Boehringer, Mannheim, Germany) according to the supplier's instructions. Plasma concentrations of apolipoproteins AI, AII and CIII were determined as previously described (Raspe et al. 1999, Asset G et al., Lipids, 1999).

The next test deals with T3, PPARδ (Homo sapiens, UniProt Q03181).
T3 construct: expressed in transfected cells; host or cells: COS-7 cells
T3 sequence (Q03181 211-439 limits assumed): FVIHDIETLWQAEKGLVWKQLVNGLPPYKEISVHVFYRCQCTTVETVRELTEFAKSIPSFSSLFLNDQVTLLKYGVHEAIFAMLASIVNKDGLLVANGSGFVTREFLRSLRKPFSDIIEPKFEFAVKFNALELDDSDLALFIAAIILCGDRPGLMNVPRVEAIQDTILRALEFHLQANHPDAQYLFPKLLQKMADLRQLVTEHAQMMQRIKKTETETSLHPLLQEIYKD
The test is described as follows: PPARδ/Gal4 transactivation system in COS-7 cells. The class given is cell-based. To be noted: 24 hours. The protocol: as §1, §2, §3, §4, §5

The mark [2] stands for this setting: FIG. 7a, absence of compounds 67.3 minutes.

For the compound `CSc1ccc(C(=O)/C=C/c2cc(Br)c(OC(C)(C)C(=O)O)c(Br)c2)cc1` [compound 8, 1-(4-Methylthiophenyl)-3-(4-carboxydimethylmethyloxy-3,5-dibromophenyl)prop-2-ene-1-one], in the test on LDL (FIG. 2a, copper alone 132 minutes), the lag phase turned out to be 169 min. For the same compound, in the test on LDL (FIG. 2b, copper alone 2.2), the “rate of diene formation” value is 1.7 nmol/min/mg. In the test on LDL (FIG. 2c, copper alone 511), the “total amount of dienes formed” value is 474 nmol/mg. In addition, the Induction factor at PPARα (1 μM) is on record as 15.67; on PPARα (10 μM) it was 12.66; at PPARγ (1 μM) it was 2.13; on PPARγ (10 μM), 2.74.

The compound `CSc1c(C)cc(C(=O)/C=C/c2cc(C)c(OC(C)(C)C(=O)O)c(C)c2)cc1C` [compound 13, 1-(4-Methylthio-3,5-dimethylphenyl)-3-(4-carboxydimethylmethyloxy-3,5-dimethylphenyl)prop-2-en-1-one] returned a lag phase with LDL (setting [2]) of 219 min. The diene oxidation rate with LDL is reported as 1.5 nmol/min/mg of LDL. The Induction factor at PPARα (0.001 μM) came out at 1.10; on PPARα (0.003 μM), 1.58; on PPARα (0.01 μM), 4.99; at PPARα (0.03 μM) it was 10.89; at PPARα (0.1 μM), 16.87; at PPARα (0.3 μM), 15.95. The Induction factor is 17.05 at PPARα (1 μM); 0.99 at PPARγ (0.001 μM); 1.15 on PPARγ (0.003 μM); 1.67 on PPARγ (0.01 μM); 2.18 on PPARγ (0.03 μM); 3.01 at PPARγ (0.1 μM). Further, the Induction factor on PPARγ (0.3 μM) was found to be 3.66; on PPARγ (1 μM), 4.03; at PPARγ (3 μM) it was 3.89; at PPARδ (0.01 μM) it was 1.50; at PPARδ (0.03 μM), 2.17; at PPARδ (0.1 μM), 3.37. For the same compound, the results for the Induction factor at PPARδ (0.3 μM), at PPARδ (1 μM) and at PPARδ (3 μM) were 14.00, 28.75 and 27.72, respectively. For the same compound, the plasma cholesterol entry in test [1] is listed as “decrease”. In addition, the plasma triglycerides result in test [1] was “decrease”.

In the test on LDL (FIG. 4a, copper alone 61 minutes), `Cc1cc(/C=C/C(=O)c2ccc(OCCSC3CCCCC3)cc2)cc(C)c1OC(C)(C)C(=O)O` [compound 23, 1-(4-Cyclohexylthioethyloxyphenyl)-3-(4-carboxydimethylmethyloxy-3,5-dimethylphenyl)prop-2-en-1-one] displayed a lag phase of 96.4 min. Besides, the diene formation rate with LDL (FIG. 4b, absence of compounds 1.9) is listed as 1.3 nmol/min/mg of LDL. The “total amount of dienes formed” value with LDL (FIG. 4c, absence of compound 370.9) was 340.3 nmol/mg of LDL. Also, the Induction factor on PPARα (0.0003 μM) turned out to be 0.92; at PPARα (0.001 μM), 1.11; at PPARα (0.003 μM) it was 1.33; at PPARα (0.01 μM), 2.35; at PPARα (0.03 μM) it was 4.22; at PPARα (0.1 μM), 7.16. The Induction factor at PPARα (0.3 μM) is 8.08; at PPARα (1 μM) it was 8.35; at PPARα (3 μM) it was 7.15; on PPARγ (0.0003 μM), 1.02; at PPARγ (0.001 μM), 1.43; on PPARγ (0.003 μM) it was 2.86. Besides, the Induction factor at PPARγ (0.01 μM) is reported as 3.48; at PPARγ (0.03 μM), 5.04; at PPARγ (0.1 μM), 6.17; on PPARγ (0.3 μM), 6.84; at PPARγ (1 μM), 7.24; on PPARγ (3 μM), 6.98.

In turn, `Cc1cc(/C=C/C(=O)c2ccc(Oc3ccccc3)cc2)cc(C)c1OC(C)(C)C(=O)O` [compound 33, 1-(4-Phenyloxyphenyl)-3-(4-carboxydimethylmethyloxy-3,5-dimethylphenyl)prop-2-en-1-one] displayed a lag phase with LDL (setting [2]) of 148 min. The diene oxidation rate in the test with LDL is given as 1.4 nmol/min/mg of LDL. Moreover, in the test on LDL (FIG. 7c, absence of compounds 432.5), the “total amount of dienes formed” value was 399 nmol/mg of LDL. Also, the Induction factor on PPARα (0.001 μM) is listed as 5.23; at PPARα (0.003 μM), 15.18; on PPARα (0.01 μM), 19.53; on PPARα (0.03 μM), 19.71; at PPARα (0.1 μM), 19.17; on PPARα (0.3 μM), 20.82. In addition, the Induction factor was 19.97 on PPARα (1 μM); 1.18 at PPARγ (0.001 μM); 1.61 at PPARγ (0.003 μM); 2.65 on PPARγ (0.01 μM); 3.54 on PPARγ (0.03 μM); 4.88 at PPARγ (0.1 μM). Moreover, the Induction factor turned out to be 5.95 on PPARγ (0.3 μM); 6.93 on PPARγ (1 μM); 7.99 at PPARγ (3 μM); 6.30 at PPARγ (10 μM); 1.17 on PPARδ (0.001 μM); 1.23 at PPARδ (0.003 μM). For the same compound, the Induction factor is 1.87 at PPARδ (0.01 μM); 5.29 on PPARδ (0.03 μM); 15.01 on PPARδ (0.1 μM); 33.89 on PPARδ (0.3 μM); 74.09 at PPARδ (1 μM); 90.84 at PPARδ (3 μM). For the same compound, the plasma cholesterol result in test [1] is listed as “decrease”. In test [1], the plasma triglycerides entry is “decrease”.
